US7763588B2, “Method for increasing cognitive function and neurogenesis” (The Salk Institute for Biological Studies, priority 2003, dated 2010)
“Also recorded” adds a separate entry of the source.

Columns and labels:
dentate gyrus [1] = assay: BrdU-positive cell proliferation in the dentate gyrus (day 10); assay type: in vivo, mice; details: runners, Mars 20 mg/kg or PBN 30 mg/kg daily
Method: (§1) During the first nine days animals also received daily intraperitoneal BrdU injections (Sigma, St. Louis, Mo.); dissolved in 0.9% NaCl, filtered sterile at 0.2 μm, 50 μg/g body weight at 10 mg/ml) to label dividing cells.
(§2) On day 10, 7 animals from each group were given an overdose of anesthetics and perfused transcardially with cold 4% paraformaldehyde in 0.1 M PBS to study the effect of the drugs on cell proliferation. […] On day 38 the remaining mice were perfused.
To confirm neurogenesis, immunohistochemistry for BrdU was performed on a 1:6 series of free-floating 40-μm coronal sections that were pretreated for BrdU immunohistochemistry by denaturing DNA, as described previously by van Praag et al., Procl. Natl. Acad. Sci. USA 96: 13427-13431 (1999), which is incorporated herein by reference in its entirety. The antibody used was mouse anti-BrdU (Boehringer Mannheim, Indianapolis, Ind.) 1:400. […] Cells were counted at 40× using an upright brightfield microscope (Olympus).
BrdU-positive cells were analyzed in mice that were allowed to survive for the first 10 days of the experiment. At this time point cell proliferation, but not neurogenesis can be assessed, since it takes about a month for a newly born cell to become a neuron (van Praag et al., Nature 415: 1030-1034 (2002), which is incorporated herein by reference in its entirety).

female C57BL/6 mice [2] = assay: Morris water maze spatial learning; assay type: in vivo; details: Mars 20 mg/kg or PBN 30 mg/kg daily
Method: (§3) Ninety-six female C57BL/6 mice, ten weeks old were purchased from Harlan SD and housed individually with a reversed day/night cycle: lights on at 10 p.m. and off at 10 a.m. The mice were divided into six groups of 16 mice each: Control/Saline (CS) Control/PBN (CP), Control/Mars (CM), Runner/Saline (RS), Runner/PBN (RP) and Runner/Mars (RM). Runners were moved into a cage with a running wheel (Lafayette Instruments) for 4 hours per day, from 10 a.m. to 2 p.m. The mice received daily injections of saline, N-tert-Butyl-phenylnitrone (PBN, 30 mg/kg) or 3′- and 4′-methylated epicatechin 1:1 (Mars, 20 mg/kg).
as §2
To assess spatial learning the mice were trained with two trials per day over eight days on the Morris water maze as described by Morris, J. Neurosci. Methods 11: 47-60 (1984), which is incorporated herein by reference in its entirety. The platform was hidden 1 cm below the surface of water, made opaque with white non-toxic paint. The starting points were changed every day. Each trial lasted either until the mouse had found the platform or for a maximum of 40 seconds. All mice were allowed to rest on the platform for 10 seconds at the end of each trial. The latency to the platform, length of swim path and swim speed was recorded semi-automatically by a video tracking system (Ethovision, Noldus).
To assess memory function mice were trained in the water maze for 8 days with 2 trials per day between days 29-36 of the experiment. […] However, when measuring swim speed, there was also a significant difference between the groups (F(5,47)=3.37, p<0.01), raising the possibility that the RM and RP animals performed better due enhanced motor rather than cognitive skills.
To further investigate whether the RM and RP had improved learning, the swimming distance was analyzed for all trials. There was no significant difference between the groups in an overall analysis (F(5,47)=1.55, p=0.19).

dentate gyrus [3] = assay: Cell survival and neurogenesis in the dentate gyrus (BrdU labeling, day 38); assay type: in vivo; details: mice that exercise; Mars 20 mg/kg or PBN 30 mg/kg daily
Method: as §1, §2
To confirm neurogenesis, immunohistochemistry for BrdU was performed on a 1:6 series of free-floating 40-μm coronal sections that were pretreated for BrdU immunohistochemistry by denaturing DNA, as described previously by van Praag et al., Procl. Natl. Acad. Sci. USA 96: 13427-13431 (1999), which is incorporated herein by reference in its entirety. The antibody used was mouse anti-BrdU (Boehringer Mannheim, Indianapolis, Ind.) 1:400. To visualize the BrdU-labeled cells, staining for BrdU with the peroxidase method was used (ABC system, with biotinylated donkey anti-mouse antibodies and diaminobenzadine as chromogen; Vector Laboratories, Burlingame, Calif.). Cells were counted at 40× using an upright brightfield microscope (Olympus).
We are currently processing the tissue of the animals that survived for 38 days to assess the effects of the drugs and exercise on the number of newborn neurons. […]

female C57BL/6 mice [4] = assay: Running wheel activity (wheel revolutions); assay type: in vivo; details: runners, wheel about 4 hours daily after injection; Mars 20 mg/kg or PBN 30 mg/kg daily; compared with Runner/Saline
Method: as §3, with “mg/kg). Mice in the running groups were placed in cages with wheels after drug injection for about 4 hours daily.” for “mg/kg).”

CC(C)(C)[N+]([O-])=Cc1ccccc1 [PBN, N-tert-Butyl-phenylnitrone]
average number of BrdU-labeled cells per section (cell proliferation / cell genesis) (dentate gyrus [1]): the greatest increase; also recorded: more cell genesis in these animals than in all the other groups
swim speed (female C57BL/6 mice [2]; controls (no running wheel)): no difference between the runners and CP; also recorded: significantly faster than CM
spatial memory performance / learning (female C57BL/6 mice [2]; mice that exercise): enhances spatial memory performance; also recorded: enhanced learning
latency to the platform, analysis of variance per day (female C57BL/6 mice [2]; runners, 8 days of testing): significantly shorter latencies from day 6 onwards
swim speed (female C57BL/6 mice [2]; runners): swam faster than CS and CM animals
neurogenesis (dentate gyrus [3]): enhances neurogenesis
number of wheel revolutions (female C57BL/6 mice [4]): no difference between RS and RP
